Columns and labels:
Type in all cases: biochemical
[1] = target: T1, 26 S proteasome (Homo sapiens, UniProt P25787+P25789); experiment: 26 S proteasome challenged with mixture of three substrates (surrogate proteinase assay); settings: mixture of ChT-L, T-L and Casp-L substrates, 33.3 μM each; read-out: IC50, 26 S proteasome with substrates for all three peptidases
T1 construct: purified from erythrocytes; purchased Enzo Life Sciences, Inc. (Farmingdale, N.Y.); host or cells: human erythrocytes
Experimental: (§1) Human housekeeping 20 S and 26 S and complexes purified from erythrocytes were purchased from Enzo Life Sciences, Inc. (Farmingdale, N.Y.). The 1 mg/ml stock 20 S proteasome was diluted to 0.2 mg/ml working solution in 50 mM Tris/HCl, pH 8 containing 20% glycerol (dilution buffer). For the 26 S proteasome stock, the dilution buffer was supplemented with 2 mM ATP, 1 mM MgCl2, and 1 mM DTT (dithiothreitol). The ChT-L peptidase activity was measured as arbitrary intensity units of fluorescence emitted by 7-amino-4-methylcoumarin (AMC) released from the canonical model peptide substrate succinyl-LeuLeuValTyr-methylcoumarin (SucLLVY-MCA; Bachem Bioscience Inc., Philadelphia, Pa.), used at concentration of 100 μM. Free AMC (Sigma-Aldrich, St. Louis, Mo.) was used as the standard. The Rpt5 C-terminal peptide was synthesized (standard solid-phase peptide chemistry) and purified to at least 98% purity by GenScript (Piscataway, N.J.). The Rpt5 peptide and the peptide substrate were dissolved in dimethylsulfoxide (DMSO) and such stock solutions were stored at −20° C. The total concentration of DMSO in final reaction mixtures never exceeded 3% (vol/vol).
The reaction was carried out in 96-well plates, in 100 μL of reaction mixture, for 1 hour at 37° C. In the case of 20 S proteasome, the reaction mixture consisted of 45 mM Tris/HCl, pH 8, 100 mM KCl with premixed 10 μM Rpt5 peptide and 100 μM Suc-LLVY-MCA, to which 200 ng (nearly […]) of proteasome and desired concentration of tested compounds in 1 μL of DMSO were added. […] The reaction rates were calculated from a linear segment of kinetic curves constructed from measurements in 1-minutes intervals (Fluoroskan Ascent plate reader; Thermo Fisher Scientific Inc., Waltham, Mass.). Reaction rates were calculated using a linear fit executed by Slope Analyzer and Enzyme Kinetics applications launched within Origin Pro 2017 (OriginLab). […]

[2] = target: T2, 20 S human housekeeping proteasome (Homo sapiens, UniProt P25787+P25789); experiment: ChT-L peptidase activity of 20 S proteasome activated with Rpt5 peptide; settings: ChT-L, 20 S activated with Rpt5 peptide; for IC50: Suc-LLVY-AMC substrate, read-out: IC50
T2 construct: purified from erythrocytes; purchased Enzo Life Sciences, Inc. (Farmingdale, N.Y.); host or cells: human erythrocytes
Experimental: as §1
The reaction was carried out in 96-well plates, in 100 μL of reaction mixture, for 1 hour at 37° C. In the case of 20 S proteasome, the reaction mixture consisted of 45 mM Tris/HCl, pH 8, 100 mM KCl with premixed 10 μM Rpt5 peptide and 100 μM Suc-LLVY-MCA, to which 200 ng (nearly […]) of proteasome and desired concentration of tested compounds in 1 μL of DMSO were added. To test the activity of 26 S proteasome under conditions challenging coordination of the three pairs of peptidase active centers, a mixture of three canonical substrates specific for the ChT-L (SucLLVY-MCA), trypsin-like (T-L; BocLRR-MCA) and caspase-like (Casp-L; Z-LLE-MCA) was used with each of the substrates at 33.3 μM (100 μM of the total substrate concentration). The reaction mixture in this case consisted of 50 mM Tris/HCl, pH 8, 20 mM NaCl, premixed with the substrates and 2 mM ATP, to which 200 ng (nearly 0.1 nmol) of the 26 S working solution and desired concentration of tested compounds in 0.5 μL of DMSO were added. The reaction rates were calculated from a linear segment of kinetic curves constructed from measurements in 1-minutes intervals (Fluoroskan Ascent plate reader; Thermo Fisher Scientific Inc., Waltham, Mass.). Reaction rates were calculated using a linear fit executed by Slope Analyzer and Enzyme Kinetics applications launched within Origin Pro 2017 (OriginLab). Specific activity of the control 20 S proteasome activated with the Rpt5 peptide was in the range of 1.4 to 2.3 nanomoles of AMC product released by 1 mg of 20 S per second (1.95±0.24; n=18). Specific activity of the control 26 S proteasome challenged with three substrates reached on average 0.28±0.06 nanomoles of AMC product released by 1 mg of the enzyme per second (n=6). For comparison, degradation of the canonical Suc-LLVY-MCA substrate by the control 26 S proteasome preceded with a rate in the range of 0.6-0.8 nanomoles of AMC released per mg of the enzyme per second. The data are presented as mean±SD or as a representative set from at least 3 independent experiments.
The compounds were evaluated using the 20 S human housekeeping proteasome. It was activated with the Rpt5 derived 10-residue peptide that contains the C-terminal HbYX (hydrophobic-Tyr-any AA) motif activating the proteasome in trans and to some extend mimic the activation by the 19 S regulatory particle (Osmulski and Gaczynska (2013) Molecular pharmacology 84: 104-113; Smith et al. (2006) J. Struct. Biol. 156: 72-83; Smith et al. (2007) Mol. Cell 27: 731-744). Proteolytic activity was monitored over time using a fluorogenic peptide substrate specific for the chymotrypsin-like active center (ChT-L, Suc-LLVY-AMC) in the presence of a concentration range of the inhibitors. […]

[3] = target: T3, latent core 20 S proteasome (Homo sapiens, UniProt P25787+P25789); experiment: Competition of compound 3 with tRpt6 peptide, ChT-L activity of latent core; settings: 2 μM tRpt6
T3 construct: purified from erythrocytes; purchased Enzo Life Sciences, Inc. (Farmingdale, N.Y.); host or cells: human erythrocytes
Excerpt: According to the most recent model of the 26 S proteasome dynamic cycle, Rpt6 succeeds the Hb-Y—X containing anchor subunits Rpt5, Rpt3, and Rpt2 in docking into the α face pockets and promoting an intermediate conformation between latent and activated (open gate) proteasomes (Dong et al. ([…]) Nature 565(7737): 49-55). […] For comparison, no competition between tRpt5, expected to occupy the α5/α6 pocket, and compound 3 was detected.
Referring to FIG. 4, the C-terminal peptide derived from Rpt6 subunit compromises inhibition of the ChT-L activity of the latent core by the compound 3; however, only when added to the proteasome prior to the inhibitor. […] 1 μM compound 3 and 2 μM tRpt6 were tested. Mean±SD; n=3 to 6.

| Molecule | IC50 [1] | IC50 [2] | ChT-L inhibitory activity in words [2] | effect of peptide alone on proteasome activity [3] |
| --- | --- | --- | --- | --- |
| O=C(OCCCc1ccccc1)[C@@H]1CCCCN1C(=O)OCc1ccccc1 [Compound 9, 1-benzyl 2-(3-phenylpropyl) (S)-piperidine-1,2-dicarboxylate] | > 60 µM | 2.6 µM |  |  |
| O=C(OCCCc1ccccc1)[C@@H]1CCCN1C(=O)OCc1ccccc1 [Compound 13, 1-benzyl 2-(3-phenylpropyl) (S)-pyrrolidine-1,2-dicarboxylate] |  | 6.6 µM |  |  |
| O=C(O)[C@@H]1CCCCN1C(=O)OCc1ccccc1 [Compound 11, 1-((benzyloxy)carbonyl) (S)-piperidine-2-carboxylic Acid] |  | > 50 µM | inactive |  |
| COc1cc(CCCOC(=O)C2CCCCN2C(=O)OCc2ccccc2)cc(OC)c1OC (racemic) [Compound 2, 1-benzyl 2-(3-(3,4,5-trimethoxyphenyl)propyl)piperidine-1,2-dicarboxylate] |  | 11.5 µM |  |  |
| tRpt6: 10-residue peptide derived from C-terminal fragment of Rpt6 (KNMSIKKLWK) [reference compound] |  |  |  | did not affect the proteasome activity |
| COc1cc(CCCOC(=O)[C@@H]2CCCN(C(=O)OCc3ccccc3)C2)cc(OC)c1OC [Compound 6, 1-benzyl 3-(3-(3,4,5-trimethoxyphenyl)propyl) (R)-piperidine-1,3-dicarboxylate] |  | 14.7 µM |  |  |
| COC(=O)N1CCCC[C@H]1C(=O)OCCCc1cc(OC)c(OC)c(OC)c1 [Compound 5, 1-methyl 2-(3-(3,4,5-trimethoxyphenyl)propyl) (S)-piperidine-1,2-dicarboxylate] |  | > 50 µM | completely abrogated activity |  |
| COc1cc(CCCOC(=O)[C@@H]2CCCCN2C(=O)OCC(C)C)cc(OC)c1OC [Compound 4, 1-isobutyl 2-(3-(3,4,5-trimethoxyphenyl)propyl) (S)-piperidine-1,2-dicarboxylate] |  | 15.2 µM |  |  |
| COc1cc(CCOC(=O)[C@@H]2CCCCN2C(=O)OCc2ccccc2)cc(OC)c1OC [Compound 7, 1-benzyl 2-(3,4,5-trimethoxyphenethyl) (S)-piperidine-1,2-dicarboxylate] |  | 20.1 µM | significantly reduced its activity |  |
| O=C(OCc1ccccc1)[C@@H]1CCCN1C(=O)OCc1ccccc1 [Compound 15, Dibenzyl (S)-pyrrolidine-1,2-dicarboxylate] |  | 33.5 µM | decreased activity |  |
| O=C(OCCc1ccccc1)[C@@H]1CCCN1C(=O)OCc1ccccc1 [Compound 14, 1-benzyl 2-phenethyl (S)-pyrrolidine-1,2-dicarboxylate] |  | 19.2 µM | decreased activity |  |
| COc1cc(CCCOC(=O)[C@@H]2CCCN2C(=O)OCc2ccccc2)cc(OC)c1OC [Compound 12, 1-benzyl 2-(3-(3,4,5-trimethoxyphenyl)propyl) (S)-pyrrolidine-1,2-dicarboxylate] |  | 23.8 µM | only had modest activity |  |
| COc1cc(COC(=O)[C@@H]2CCCCN2C(=O)OCc2ccccc2)cc(OC)c1OC (stereo in doubt) [Compound 8, 1-benzyl 2-(3,4,5-trimethoxybenzyl) piperidine-1,2-dicarboxylate] |  | 19.8 µM | significantly reduced its activity |  |
| CCCOC(=O)[C@@H]1CCCCN1C(=O)OCc1ccccc1 [Compound 10, 1-benzyl 2-propyl (S)-piperidine-1,2-dicarboxylate] |  | > 50 µM | inactive |  |
